Publication PMC4961458 (eLife, 2016)

Tests used:
[1] = system: Doxycycline-inducible MCF7 cells over-expressing ER (ER.WT); test: Cell viability, doxycycline-inducible ER over-expressing MCF7 cells; type: cell-based; settings: Homo sapiens, MCF7, 168 h, 7 days; for IC50: 0.1 nM E2, 10 ng/ml doxycycline; for EC50: estrogen-depleted medium, 10 ng/ml doxycycline, read-out: Cell viability EC50, ER.WT -E2
uterus of juvenile rats = test: Juvenile rat uterus assays; type: in vivo, Sprague Dawley rats; settings: for Uterine wet weight: tamoxifen 60 mg/kg orally once a day for 3 days, GDC-0810 0.1 or 10 mg/kg, relative to vehicle control; for Uterine wet weight / Endometrial epithelial cell morphology (histology, endometrial cell height): fulvestrant 50 mg/kg; for Endometrial epithelial cell morphology (histology, endometrial cell height): tamoxifen 60 mg/kg, GDC-0810 0.1 and 10 mg/kg
From the text: […] Rats were euthanized 4 hr after the final dose. Uteri were then dissected, weighed and fixed for histological examination. A small portion of tissue was saved prior to fixation for mRNA isolation and gene expression analysis.
H&E stained sections from bilateral representative uterine horn cross-sections were examined from two animals treated with the compounds shown. Endometrial cell height was digitally measured from the basement membrane to the apical (luminal) surface (orange line), using a digitally scanned image at 20X magnification. Obliquely cut areas were avoided. Three digital measurements were taken from each section (n = 6).
Estrogen receptor was detected using the mouse monoclonal anti-ER (clone 1D5, Dako), incubated for 60 min at RT at a dilution of 0.5 µg/ml, and visualized after secondary rabbit anti-mouse antibody binding with Powervision DAB (Leica Powersystems). H-scores were estimated manually, incorporating both intensity and percentage of positive nuclei, using the following formula: (0 x% negative)+(1 x% weak)+(2 x% moderate)+(3 x% strong)

TamR1 tumors [2] = system: TamR1 tumors; set-up: method as in Lai et al., 2015; settings: 0.72 mg 60 day release E2 pellets; GDC-0810 p.o. 100 mg/kg/day; fulvestrant SC 200 mg/kg 3x/week; ref Lai et al., 2015; cited from earlier work
TamR1 tumors [3] = test: Tamoxifen-resistant MCF7 (TamR1) xenograft efficacy; type: in vivo, mice; settings: 0.18 mg 60 day E2 pellets; tamoxifen 120 mg/kg/day p.o.; fulvestrant 200 mg/kg 3x/week s.c.; GDC-0810 10, 30 or 100 mg/kg/day p.o.; 27 days
Protocol: We previously generated a tamoxifen-resistant xenograft model, TamR1, by chronically treating MCF7 tumor bearing mice with tamoxifen until a resistant tumor emerged ([Lai et al., 2015]). […] These experiments were conducted in mice with relatively high levels of circulating estradiol, with estradiol being delivered via 0.72 mg 60 day release E2 pellets that are reported by the manufacturer (Innovative Research) to deliver between 300 and 400 pg/ml estradiol. Under these conditions the high E2 reduces the steady state ERα protein levels, thus confounding the readout of ERα protein as a pharmacodynamic endpoint (Figure 5—figure supplement 1). […] These pellets are sufficient to support tumor growth but only modestly reduce ERα levels (Figure 5—figure supplement 1).
Figure 5. […] (A) Tamoxifen-resistant MCF7 tumors were implanted in animals supplemented with 60-day release 0.18 mg 17β-estradiol pellets. […] S.c. is sub-cutaneous dosing, and p.o. is per os (by mouth) oral gavage dosing. * Denotes significance (p<0.05) compared to Vehicle in 1-Way ANOVA and Dunnett's Multiple Comparison Test. Figure 5—figure supplement 1. Effects of estradiol pellet on ERα levels in MCF7-TamR1 xenograft tumors. TamR1 tumor fragments were implanted into Crl:NU-Foxn1^nu mice implanted with either 0.72 or 0.18 mg/60 day 17-β estradiol pellets. Once tumors were established pellets were removed from 1 group. 28 days after pellet removal ERα protein levels were determined for 4 tumors from each group. Data is presented as average compared to Vehicle (-E2). Error is standard deviation. * Denotes significance (p<0.05) compared to Vehicle (-E2) by T-test. [drawing 7] […] (A) ERα protein levels were determined by western blot analysis of tumors 8 hr following the final compound treatment on day 27. […] KI-67 expression, quantified from IHC analysis. […]
The tamoxifen-resistant derivative of the ER+ human tumor cell line, MCF7 (TamR1) was developed by Seragon Pharmaceuticals, Inc ([Lai et al., 2015]). […] The tumors which continued to grow under these conditions were serially passaged and evaluated for continued tamoxifen resistance. […]

[4] = system: Doxycycline-inducible MCF7 cells (Vector); test: Cell viability, doxycycline-inducible MCF7 cells, vector control; type: cell-based; settings: Homo sapiens, MCF7, 168 h, 7 days; for IC50: 0.1 nM E2, 10 ng/ml doxycycline; for EC50: estrogen-depleted medium, 10 ng/ml doxycycline, read-out: Cell viability EC50, Vector -E2
[5] = system: HCI-003 patient derived xenograft tumors; test: HCI-003 patient derived xenograft efficacy; type: in vivo, mice; settings: for Tumor growth response, HCI-003 PDX: 1 mg E2 beeswax pellets, GDC-0810 10 and 100 mg/kg/day p.o., fulvestrant 200 mg/kg 3x/week s.c., 43 days
From the text: Like MCF7, HCI-003 tumors are ER+, E2 dependent and tamoxifen sensitive (Figure 4—figure supplement 1C). […] Lack of efficacy in this ER-negative model is consistent with the GDC-0810 mechanism of action being selectively mediated through ER.
The HCI-003 model was established at the University of Utah, Huntsman Cancer Center via direct implantation of both primary tumor material into immune compromised mice ([DeRose et al., 2011]). HCI-003 is wild-type at the ESR1 ligand binding domain. Exogenous estradiol is required for robust growth of this patient derived tumor line, and is supplied in the form of estradiol impregnated beeswax pellets. Tumor fragments obtained from the Huntsman Cancer Center were surgically implanted into the cleared mammary fat pad of 19 day old female NOD.CB17-Prkdc^scid/NcrCrl mice (Charles River Laboratories). The right mammary fat pad of recipient animals was exposed by a 1 cm incision on the ventral mid-line at the level of the fourth mammary. The blood vessels were cauterized and the fat pad blunt dissected from the abdominal wall and skin. Tumor fragments were excised from donor animals, chopped into fragments approximately 8 mm^3 (2 × 2 × 2 mm), implanted in the region of the cleared mammary fat pad, and the incision was closed with wound clips. Estradiol impregnated beeswax pellets were implanted subcutaneously into the interscapular space of recipient animals on the day of tumor implant. Recipient animals were ovariectomized 19 days after tumor fragment implant. One group of animals was designated as a control for estradiol independent tumor growth (Vehicle-E2) and the estradiol impregnated pellets were excised on the first day of dosing. All mice were housed and maintained according to the animal-use guidelines of the Institutional Animal Care and Use Committee (IACUC), conforming to California State legal and ethical practices.

| Structure (SMILES) | IC50 [1] [nM] | EC50 [1] [nM] | ER levels in the uterus (IHC) (uterus of juvenile rats) | Uterine wet weight (uterus of juvenile rats) | Endometrial epithelial cell morphology (histology, endometrial cell height) (uterus of juvenile rats) | Tumor growth response, TamR1 xenograft, high E2 (TamR1 tumors [2]) | Tumor growth response, TamR1 xenograft, lower E2 (TamR1 tumors [3]) | IC50 [4] [nM] | EC50 [4] [nM] | Tumor growth response, HCI-003 PDX [5] | Anti-tumor activity, HCI-003 PDX (Figure 4—figure supplement 1C) ([5]; tamoxifen 60 mg/kg/day orally, fulvestrant 200 mg/kg 3x/week, 38 days) |
| --- | --- | --- | --- | --- | --- | --- | --- | --- | --- | --- | --- |
| CC/C(=C(/c1ccc(/C=C/C(=O)O)cc1)c1ccc2[nH]ncc2c1)c1ccc(F)cc1Cl [GDC-0810] | 19 | 0.8 | only modestly reduces ER levels | did not significantly alter uterine wet | induced a cuboidal to columnar morphological change | induced tumor regressions | induced regression at all doses tested | 15 | 1 | drove tumor stasis | – |
| C[C@]12CC[C@@H]3c4ccc(O)cc4C[C@@H](CCCCCCCCC[S+]([O-])CCCC(F)(F)C(F)(F)F)[C@H]3[C@@H]1CC[C@@H]2O (stereo partly drawn) [Fulvestrant] | 11 | 1.2 | robustly depletes ER | significant decrease in uterine weight | remained cuboidal | only modest tumor growth inhibition | resulted in regression of TamR1 tumors | 7.2 | 0.8 | induced tumor regression | display anti-tumor activity |
